Experimental data reported in ChEMBL document CHEMBL1833945, “Synthesis and anticonvulsant activity of new N-Mannich bases derived from 5-cyclopropyl-5-phenyl- and 5-cyclopropyl-5-(4-chlorophenyl)-imidazolidine-2,4-diones” (Bioorg Med Chem, 2011).
Calls of active or inactive are those of the source. The rule behind the calls is not given here.

Legend:
Rattus norvegicus [1] = species: Rattus norvegicus
Description: Protective index, ratio of TD50 for neurotoxicity in Sprague-Dawley albino rat to ED50 for inhibition of subcutaneous pentylenetetrazole-induced seizures in Sprague-Dawley albino rat

Rattus norvegicus [2] = test: Neurotoxicity in Sprague-Dawley albino rat assessed as motor impairment at 30 mg/kg, po after 0.5 hrs by rotarod test; type: toxicity, organism-based; design: dose 30 mg/kg, route oral; conditions: in vivo
Rattus norvegicus [3] = test: Anticonvulsant activity in Sprague-Dawley albino rat assessed as protection against maximal electroshock-induced seizures at 30 mg/kg, po after 0.25 hrs; type: functional, organism-based; design: dose 30 mg/kg
Mus musculus [4] = test: Anticonvulsant activity in CF1 albino mouse assessed as protection against electrically-induced seizure at 100 mg/kg, ip after 2 hrs by 6Hz psychomotor seizure test; type: functional, organism-based; design: dose 100 mg/kg
Rattus norvegicus [5] = test: Neurotoxicity in Sprague-Dawley albino rat assessed as motor impairment at 30 mg/kg, po after 1 hrs by rotarod test; type: toxicity, organism-based; design: dose 30 mg/kg, route oral; conditions: in vivo
[6] = Lipophilicity, log P of compound; type: physicochemical; conditions: octanol/water
Mus musculus [7] = test: Neurotoxicity in CF1 albino mouse assessed as loss of rotard grasping at 300 mg/kg, ip after 4 hrs by rotarod test; type: toxicity, organism-based; design: dose 300 mg/kg, route intraperitoneal; conditions: in vivo
Rattus norvegicus [8] = test: Neurotoxicity in Sprague-Dawley albino rat assessed as motor impairment at 50 mg/kg, po after 2 hrs by rotarod test; type: toxicity, organism-based; design: dose 50 mg/kg, route oral; conditions: in vivo
Mus musculus [9] = test: Anticonvulsant activity in ip dosed CF1 albino mouse assessed as protection against maximal electroshock-induced seizures after 4 hrs; type: functional; conditions: read-out: MED
Rattus norvegicus [10] = test: Anticonvulsant activity in po dosed Sprague-Dawley albino rat assessed as time to peak effect; type: functional
Mus musculus [11] = test: Anticonvulsant activity in CF1 albino mouse assessed as protection against electrically-induced seizure at 100 mg/kg, ip after 0.5 hrs by 6Hz psychomotor seizure test; type: functional, organism-based; design: dose 100 mg/kg
Rattus norvegicus [12] = test: Anticonvulsant activity in po dosed Sprague-Dawley albino rat assessed as protection against maximal electroshock-induced seizures; type: functional
Mus musculus [13] = test: Neurotoxicity in CF1 albino mouse assessed as loss of rotard grasping at 300 mg/kg, ip after 0.5 hrs by rotarod test; type: toxicity, organism-based; design: dose 300 mg/kg, route intraperitoneal; conditions: in vivo
Rattus norvegicus [14] = test: Anticonvulsant activity in Sprague-Dawley albino rat assessed as protection against maximal electroshock-induced seizures at 30 mg/kg, po after 2 hrs; type: functional, organism-based; design: dose 30 mg/kg
Mus musculus [15] = test: Anticonvulsant activity in CF1 albino mouse assessed as time to peak effect at 100 mg/kg, ip; type: functional; conditions: route intraperitoneal
Rattus norvegicus [16] = test: Anticonvulsant activity in Sprague-Dawley albino rat assessed as protection against maximal electroshock-induced seizures at 30 mg/kg, po after 4 hrs; type: functional, organism-based; design: dose 30 mg/kg
[17] = Neurotoxicity in oral dosed Sprague-Dawley albino rat assessed as motor impairment by rotarod test; type: toxicity, organism-based; conditions: in vivo
Rattus norvegicus [18] = test: Neurotoxicity in Sprague-Dawley albino rat assessed as motor impairment at 30 mg/kg, po after 0.25 hrs by rotarod test; type: toxicity, organism-based; design: dose 30 mg/kg, route oral; conditions: in vivo
Rattus norvegicus [19] = test: Neurotoxicity in Sprague-Dawley albino rat assessed as motor impairment at 50 mg/kg, po after 0.5 hrs by rotarod test; type: toxicity, organism-based; design: dose 50 mg/kg, route oral; conditions: in vivo
Rattus norvegicus [20] = test: Neurotoxicity in Sprague-Dawley albino rat assessed as motor impairment at 50 mg/kg, po after 1 hrs by rotarod test; type: toxicity, organism-based; design: dose 50 mg/kg, route oral; conditions: in vivo
Rattus norvegicus [21] = test: Anticonvulsant activity in Sprague-Dawley albino rat assessed as protection against subcutaneous pentylenetetrazole-induced seizures at 50 mg/kg, po after 0.25 hrs; type: functional, organism-based; design: dose 50 mg/kg
Rattus norvegicus [22] = test: Anticonvulsant activity in po dosed Sprague-Dawley albino rat assessed as protection against subcutaneous pentylenetetrazole-induced seizures; type: functional
Rattus norvegicus [23] = test: Neurotoxicity in Sprague-Dawley albino rat assessed as motor impairment at 30 mg/kg, po after 4 hrs by rotarod test; type: toxicity, organism-based; design: dose 30 mg/kg, route oral; conditions: in vivo
Rattus norvegicus [24] = test: Neurotoxicity in Sprague-Dawley albino rat assessed as motor impairment at 50 mg/kg, po after 4 hrs by rotarod test; type: toxicity, organism-based; design: dose 50 mg/kg, route oral; conditions: in vivo
Rattus norvegicus [25] = species: Rattus norvegicus; test: Protective index, ratio of TD50 for neurotoxicity in Sprague-Dawley albino rat to ED50 for inhibition of maximal electroshock-induced seizures in Sprague-Dawley albino rat; type: functional
Rattus norvegicus [26] = test: Neurotoxicity in Sprague-Dawley albino rat assessed as motor impairment at 30 mg/kg, po after 2 hrs by rotarod test; type: toxicity, organism-based; design: dose 30 mg/kg, route oral; conditions: in vivo
Mus musculus [27] = test: Anticonvulsant activity in ip dosed CF1 albino mouse assessed as protection against subcutaneous pentylenetetrazole-induced seizures after 0.5 hrs; type: functional; conditions: read-out: MED
Rattus norvegicus [28] = test: Anticonvulsant activity in Sprague-Dawley albino rat assessed as protection against maximal electroshock-induced seizures at 30 mg/kg, po after 0.5 hrs; type: functional, organism-based; design: dose 30 mg/kg
Mus musculus [29] = test: Anticonvulsant activity in ip dosed CF1 albino mouse assessed as protection against electrically-induced seizure by 6Hz psychomotor seizure test; type: functional
Mus musculus [30] = test: Anticonvulsant activity in ip dosed CF1 albino mouse assessed as protection against maximal electroshock-induced seizures after 0.5 hrs; type: functional; conditions: read-out: MED
Mus musculus [31] = test: Anticonvulsant activity in ip dosed CF1 albino mouse assessed as protection against subcutaneous pentylenetetrazole-induced seizures after 4 hrs; type: functional; conditions: read-out: MED
Rattus norvegicus [32] = test: Neurotoxicity in Sprague-Dawley albino rat assessed as motor impairment at 50 mg/kg, po after 0.25 hrs by rotarod test; type: toxicity, organism-based; design: dose 50 mg/kg, route oral; conditions: in vivo
Mus musculus [33] = test: Anticonvulsant activity in CF1 albino mouse assessed as protection against electrically-induced seizure at 100 mg/kg, ip after 1 hrs by 6Hz psychomotor seizure test; type: functional, organism-based; design: dose 100 mg/kg
Rattus norvegicus [34] = test: Anticonvulsant activity in Sprague-Dawley albino rat assessed as protection against maximal electroshock-induced seizures at 30 mg/kg, po after 1 hrs; type: functional, organism-based; design: dose 30 mg/kg

SMILES: O=C1NC(=O)C(c2ccccc2)(C2CC2)N1 (centres undefined)
- PI (Rattus norvegicus [1]): 1.35
- Activity (Rattus norvegicus [2]): Non-toxic
- Activity (Rattus norvegicus [3]): Active
- Activity (Mus musculus [4]): Active
- Activity (Rattus norvegicus [5]): Non-toxic
- logP [6]: 1.66
- Activity (Mus musculus [7]): Toxic
- Activity (Rattus norvegicus [8]): Non-toxic
- minimal effective dose (Mus musculus [9]): 30 mg/kg
- Time (Rattus norvegicus [10]): 2 h
- Activity (Mus musculus [11]): Active
- ED50 (Rattus norvegicus [12]): 5.76 mg/kg
- Activity (Mus musculus [13]): Toxic
- Activity (Rattus norvegicus [14]): Active
- Time (Mus musculus [15]): 2 h
- Activity (Rattus norvegicus [16]): Active
- TD50 [17]: 77.6 mg/kg
- Activity (Rattus norvegicus [18]): Non-toxic
- Activity (Rattus norvegicus [19]): Non-toxic
- Activity (Rattus norvegicus [20]): Non-toxic
- Activity (Rattus norvegicus [21]): inactive
- ED50 (Rattus norvegicus [22]): 57.3 mg/kg
- Activity (Rattus norvegicus [23]): Non-toxic
- Activity (Rattus norvegicus [24]): Non-toxic
- PI (Rattus norvegicus [25]): 13.47
- Activity (Rattus norvegicus [26]): Non-toxic
- minimal effective dose (Mus musculus [27]): 30 mg/kg
- Activity (Rattus norvegicus [28]): Active
- ED50 (Mus musculus [29]): 26.1 mg/kg
- minimal effective dose (Mus musculus [30]): 30 mg/kg
- minimal effective dose (Mus musculus [31]): 100 mg/kg
- Activity (Rattus norvegicus [32]): Non-toxic
- Activity (Mus musculus [33]): Active
- Activity (Rattus norvegicus [34]): Active
